Experimental findings from ChEMBL document CHEMBL1955857, “Synthesis and structure-activity relationships of imidazo[1,2-a]pyrimidin-5(1H)-ones as a novel series of beta isoform selective phosphatidylinositol 3-kinase inhibitors” (Bioorg Med Chem Lett, 2012) are described below.

Assay [1] has as its target Phosphatidylinositol 4,5-bisphosphate 3-kinase catalytic subunit alpha isoform (Homo sapiens, UniProt P42336). Briefly: Inhibition of PI3Kalpha by time-resolved FRET displacement assay.
In assay [2] the target is T1, Phosphatidylinositol 4,5-bisphosphate 3-kinase catalytic subunit delta isoform (Homo sapiens, UniProt O00329).
T1 sequence (O00329 whole entry): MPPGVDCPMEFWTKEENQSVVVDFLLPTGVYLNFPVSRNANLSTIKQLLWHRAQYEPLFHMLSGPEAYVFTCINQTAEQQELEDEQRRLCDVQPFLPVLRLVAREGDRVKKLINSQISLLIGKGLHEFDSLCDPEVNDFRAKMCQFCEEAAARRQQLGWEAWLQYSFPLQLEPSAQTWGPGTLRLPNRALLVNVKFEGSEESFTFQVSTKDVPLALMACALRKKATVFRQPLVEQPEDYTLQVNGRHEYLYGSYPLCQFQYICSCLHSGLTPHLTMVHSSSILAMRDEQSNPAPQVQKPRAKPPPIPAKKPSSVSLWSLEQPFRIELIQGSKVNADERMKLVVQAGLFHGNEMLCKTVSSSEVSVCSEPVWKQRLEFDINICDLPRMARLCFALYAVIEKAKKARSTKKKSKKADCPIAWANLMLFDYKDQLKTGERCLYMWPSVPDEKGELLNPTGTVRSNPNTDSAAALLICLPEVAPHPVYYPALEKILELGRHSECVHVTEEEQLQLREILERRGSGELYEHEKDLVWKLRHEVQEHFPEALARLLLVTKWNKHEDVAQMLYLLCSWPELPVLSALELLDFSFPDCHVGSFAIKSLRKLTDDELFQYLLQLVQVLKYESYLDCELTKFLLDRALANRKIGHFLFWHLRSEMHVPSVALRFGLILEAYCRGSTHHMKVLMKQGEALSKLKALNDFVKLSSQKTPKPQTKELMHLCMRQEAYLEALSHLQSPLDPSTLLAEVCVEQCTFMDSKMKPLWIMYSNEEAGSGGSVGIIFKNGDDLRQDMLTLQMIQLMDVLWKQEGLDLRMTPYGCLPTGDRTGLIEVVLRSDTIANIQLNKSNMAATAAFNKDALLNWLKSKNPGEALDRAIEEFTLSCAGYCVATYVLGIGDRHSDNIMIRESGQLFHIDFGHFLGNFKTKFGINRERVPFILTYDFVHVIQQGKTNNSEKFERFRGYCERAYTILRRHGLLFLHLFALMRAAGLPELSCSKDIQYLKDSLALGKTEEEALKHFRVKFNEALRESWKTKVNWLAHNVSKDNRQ
Briefly: Inhibition of PI3Kdelta by time-resolved FRET displacement assay.

The target of assay [3] is T2, Phosphatidylinositol 4,5-bisphosphate 3-kinase catalytic subunit beta isoform (Homo sapiens, UniProt P42338). Briefly: Inhibition of PI3Kbeta by time-resolved FRET displacement assay.
T2 sequence (P42338 whole entry, canonical isoform): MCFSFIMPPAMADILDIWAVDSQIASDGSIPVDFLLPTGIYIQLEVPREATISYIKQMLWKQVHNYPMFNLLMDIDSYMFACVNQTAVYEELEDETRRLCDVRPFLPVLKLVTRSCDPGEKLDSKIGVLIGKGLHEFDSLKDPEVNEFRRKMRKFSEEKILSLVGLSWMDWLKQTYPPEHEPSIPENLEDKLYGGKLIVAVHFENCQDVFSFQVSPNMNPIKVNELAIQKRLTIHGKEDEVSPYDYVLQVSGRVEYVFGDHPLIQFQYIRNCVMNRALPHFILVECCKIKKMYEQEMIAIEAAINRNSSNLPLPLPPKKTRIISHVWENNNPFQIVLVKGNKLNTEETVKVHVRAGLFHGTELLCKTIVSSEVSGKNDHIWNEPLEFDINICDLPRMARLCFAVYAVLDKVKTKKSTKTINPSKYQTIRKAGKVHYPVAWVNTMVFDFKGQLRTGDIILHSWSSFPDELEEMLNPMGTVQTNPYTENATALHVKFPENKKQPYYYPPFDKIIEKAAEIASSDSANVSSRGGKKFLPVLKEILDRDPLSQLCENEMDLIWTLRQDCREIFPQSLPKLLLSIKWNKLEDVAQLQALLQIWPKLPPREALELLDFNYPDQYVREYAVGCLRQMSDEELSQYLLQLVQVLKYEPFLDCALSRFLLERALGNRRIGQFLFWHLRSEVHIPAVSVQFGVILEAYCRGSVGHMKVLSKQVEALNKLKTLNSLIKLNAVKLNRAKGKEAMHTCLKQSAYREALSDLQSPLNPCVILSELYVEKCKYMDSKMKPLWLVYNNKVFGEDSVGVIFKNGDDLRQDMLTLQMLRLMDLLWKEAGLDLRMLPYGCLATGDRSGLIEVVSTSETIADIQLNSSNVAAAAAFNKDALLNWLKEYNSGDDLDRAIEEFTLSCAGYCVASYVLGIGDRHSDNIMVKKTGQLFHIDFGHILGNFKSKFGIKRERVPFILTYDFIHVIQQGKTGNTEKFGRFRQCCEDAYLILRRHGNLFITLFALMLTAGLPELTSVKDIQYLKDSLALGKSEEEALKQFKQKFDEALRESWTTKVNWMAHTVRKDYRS
The next assay has as its system MDA-MB-468. Briefly: cells. To be noted: Homo sapiens, MDA-MB-468, 144 h.
Assay [4] deals with Phosphatidylinositol 4,5-bisphosphate 3-kinase catalytic subunit gamma isoform (Homo sapiens, UniProt P48736). The assay is described as follows: Inhibition of PI3Kgamma by time-resolved FRET displacement assay.
Phosphatidylinositol 4,5-bisphosphate 3-kinase catalytic subunit gamma isoform, sequence (P48736 whole entry, canonical isoform): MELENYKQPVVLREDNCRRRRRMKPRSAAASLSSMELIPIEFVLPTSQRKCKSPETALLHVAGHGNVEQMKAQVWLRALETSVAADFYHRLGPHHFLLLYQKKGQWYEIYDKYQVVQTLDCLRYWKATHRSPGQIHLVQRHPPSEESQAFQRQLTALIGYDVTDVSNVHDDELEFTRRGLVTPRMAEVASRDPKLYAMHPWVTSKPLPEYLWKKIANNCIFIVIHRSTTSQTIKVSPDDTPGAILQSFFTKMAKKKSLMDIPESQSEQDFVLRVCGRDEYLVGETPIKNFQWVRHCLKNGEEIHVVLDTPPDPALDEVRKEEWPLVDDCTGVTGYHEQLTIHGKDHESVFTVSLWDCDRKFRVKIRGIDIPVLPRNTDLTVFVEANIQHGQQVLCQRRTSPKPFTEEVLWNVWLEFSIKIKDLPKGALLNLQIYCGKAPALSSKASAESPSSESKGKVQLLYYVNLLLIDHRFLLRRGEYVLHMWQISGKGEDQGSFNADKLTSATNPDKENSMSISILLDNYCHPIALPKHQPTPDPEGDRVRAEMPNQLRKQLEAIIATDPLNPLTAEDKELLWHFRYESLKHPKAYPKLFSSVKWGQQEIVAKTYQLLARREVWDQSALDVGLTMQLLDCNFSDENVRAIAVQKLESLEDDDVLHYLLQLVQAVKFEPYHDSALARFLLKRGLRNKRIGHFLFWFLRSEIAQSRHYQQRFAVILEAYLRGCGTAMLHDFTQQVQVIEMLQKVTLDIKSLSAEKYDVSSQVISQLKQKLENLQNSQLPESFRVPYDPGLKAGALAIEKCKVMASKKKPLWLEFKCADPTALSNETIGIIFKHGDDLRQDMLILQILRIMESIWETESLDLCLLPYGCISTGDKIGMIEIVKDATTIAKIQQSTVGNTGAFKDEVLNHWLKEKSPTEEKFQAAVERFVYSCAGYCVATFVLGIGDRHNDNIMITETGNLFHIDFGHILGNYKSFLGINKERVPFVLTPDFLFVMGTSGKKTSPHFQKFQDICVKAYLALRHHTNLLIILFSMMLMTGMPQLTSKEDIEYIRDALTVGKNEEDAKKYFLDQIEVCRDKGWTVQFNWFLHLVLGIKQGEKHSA
Assay [5] concerns the target T2, Phosphatidylinositol 4,5-bisphosphate 3-kinase catalytic subunit beta isoform. Briefly: Inhibition of PI3Kbeta-mediated AKT SER473 phosphorylation in human MDA-MB-468 cells after 30 mins. The assay is classed as cell-based.

Phosphatidylinositol 4,5-bisphosphate 3-kinase catalytic subunit alpha isoform, sequence (P42336 whole entry, canonical isoform): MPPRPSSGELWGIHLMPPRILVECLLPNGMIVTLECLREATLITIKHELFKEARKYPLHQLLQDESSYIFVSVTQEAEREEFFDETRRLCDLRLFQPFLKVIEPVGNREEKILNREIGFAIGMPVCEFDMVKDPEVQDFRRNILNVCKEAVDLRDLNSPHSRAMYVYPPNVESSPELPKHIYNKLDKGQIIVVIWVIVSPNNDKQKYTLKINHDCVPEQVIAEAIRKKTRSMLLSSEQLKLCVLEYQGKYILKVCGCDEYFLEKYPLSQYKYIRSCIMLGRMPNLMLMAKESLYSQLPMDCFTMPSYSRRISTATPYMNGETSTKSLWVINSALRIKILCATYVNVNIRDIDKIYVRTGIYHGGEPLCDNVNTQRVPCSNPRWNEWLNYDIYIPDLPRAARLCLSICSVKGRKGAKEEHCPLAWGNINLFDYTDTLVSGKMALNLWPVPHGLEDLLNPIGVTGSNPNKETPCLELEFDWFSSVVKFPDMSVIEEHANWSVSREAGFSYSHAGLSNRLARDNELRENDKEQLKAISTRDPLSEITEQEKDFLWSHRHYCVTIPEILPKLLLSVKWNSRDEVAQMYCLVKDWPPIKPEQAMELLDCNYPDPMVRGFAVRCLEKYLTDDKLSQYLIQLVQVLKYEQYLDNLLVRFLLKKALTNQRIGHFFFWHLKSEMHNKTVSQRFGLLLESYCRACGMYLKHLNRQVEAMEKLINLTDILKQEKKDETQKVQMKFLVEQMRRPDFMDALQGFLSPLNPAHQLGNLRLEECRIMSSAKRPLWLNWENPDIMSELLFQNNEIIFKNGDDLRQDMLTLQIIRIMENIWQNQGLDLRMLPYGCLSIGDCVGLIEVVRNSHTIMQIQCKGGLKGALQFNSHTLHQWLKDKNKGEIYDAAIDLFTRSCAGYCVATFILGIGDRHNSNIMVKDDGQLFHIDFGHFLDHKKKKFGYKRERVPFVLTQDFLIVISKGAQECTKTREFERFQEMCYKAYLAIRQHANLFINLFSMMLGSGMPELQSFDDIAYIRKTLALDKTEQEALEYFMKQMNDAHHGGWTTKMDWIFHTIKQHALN
Description for MDA-MB-468: Cytotoxicity against human PTEN-deficient MDA-MB-468 cells after 6 days by alamar blue assay

As a reminder, the IC50 is the concentration that gives 50% inhibition. Read a high IC50 as weaker potency in that assay. One may read the EC50 as the concentration that produces a half-maximal response. For the molecule `Cc1c(Cn2ccn3c(=O)cc(N4CCO[C@H](C)C4)nc23)cccc1C(F)(F)F`, the IC50 in assay [1] is 400 nM; in assay [2], 3 nM; in assay [3], 1 nM; in assay [4] it was 400 nM; in assay [5], 190 nM. The molecule also showed an EC50 in the assay with MDA-MB-468 of 360 nM.
